Assay results as given in ChEMBL document CHEMBL5244280, “Evodiamine Lowers Blood Lipids by Up-Regulating the PPARγ/ABCG1 Pathway in High-Fat-Diet-Fed Mice” (J Nat Prod, 2021).
Active and inactive are the calls of the source. The calls are words filed in the database; no cut-off is given here.

How the values were obtained:
[1] = Toxicity in high fat diet fed hyperlipidemic ICR mouse model assessed as ratio of heart weight to body weight at 10 mg/kg, ig administered daily via gavage for 8 weeks (reference value: 0.48 +/-0.03); format: organism-based; settings: in vivo, po, 1344 h
Mus musculus [2] = experiment: Upregulation of ABCG5 protein expression in liver of high fat diet fed hyperlipidemic ICR mouse model at 10 mg/kg, ig administered daily via gavage for 8 weeks by western blotting analysis; format: functional, organism-based
[3] = target: T1, Peroxisome proliferator-activated receptor gamma (Homo sapiens) (UniProt P37231); experiment: Agonist activity at human PPAR-gamma expressed in HEK293 cells co-transfected with luciferase reporter plasmid assessed as receptor transactivation at 10 uM incubated for 18 hrs by luciferase reporter gene assay relative to control; format: cell-based
T1 sequence (whole entry): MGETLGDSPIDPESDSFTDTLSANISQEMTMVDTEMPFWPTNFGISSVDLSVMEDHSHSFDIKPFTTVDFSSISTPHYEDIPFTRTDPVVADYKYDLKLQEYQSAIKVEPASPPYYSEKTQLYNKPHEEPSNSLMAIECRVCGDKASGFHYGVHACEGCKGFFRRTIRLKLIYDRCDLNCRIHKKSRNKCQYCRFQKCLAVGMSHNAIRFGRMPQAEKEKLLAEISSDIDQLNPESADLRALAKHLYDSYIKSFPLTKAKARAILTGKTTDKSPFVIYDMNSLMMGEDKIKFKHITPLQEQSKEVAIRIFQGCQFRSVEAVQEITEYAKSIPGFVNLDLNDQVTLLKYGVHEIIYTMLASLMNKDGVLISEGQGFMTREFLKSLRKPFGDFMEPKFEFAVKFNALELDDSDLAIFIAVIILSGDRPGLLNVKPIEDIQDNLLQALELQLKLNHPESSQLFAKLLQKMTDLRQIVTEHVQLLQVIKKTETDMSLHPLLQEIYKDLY

[4] = Toxicity in normal diet fed ICR mouse assessed as ratio of stomach weight to body weight at 10 mg/kg, ig administered daily via gavage for 8 weeks (reference value: 1.24 +/-0.41); format: organism-based; settings: in vivo, po, 1344 h
Mus musculus [5] = experiment: Downregulation of ABCG8 mRNA expression in liver of high fat diet fed hyperlipidemic ICR mouse model at 10 mg/kg, ig administered daily via gavage for 8 weeks by qPCR analysis; format: functional, organism-based
[6] = Toxicity in normal diet fed ICR mouse assessed as ratio of lung weight to body weight at 10 mg/kg, ig administered daily via gavage for 8 weeks (reference value: 0.83 +/-0.32); format: organism-based; settings: in vivo, po, 1344 h
Mus musculus [7] = experiment: Protection against hyperlipidemia in high fat diet-fed hyperlipidemic ICR mouse model assessed as normal and less pale colored liver at 10 to 20 mg/kg, ig administered daily via gavage for 8 weeks; format: functional, organism-based; settings: dose 10-20 mg/kg
Mus musculus [8] = experiment: Protection against hyperlipidemia in high fat diet-fed hyperlipidemic ICR mouse model assessed as reduction in vacuolar degeneration of hepatocytes at 10 mg/kg, ig administered daily via gavage for 8 weeks by Hematoxylin-eosin staining based analysis; format: functional, organism-based
Mus musculus [9] = experiment: Protection against hyperlipidemia in high fat diet-fed hyperlipidemic ICR mouse model assessed as reduction in hepatic total cholesterol content at 10 mg/kg, ig administered daily via gavage for 8 weeks by colorimetric assay; format: functional; settings: po, 1344 h
Mus musculus [10] = experiment: Upregulation of NPC1 mRNA expression in liver of high fat diet fed hyperlipidemic ICR mouse model at 10 mg/kg, ig administered daily via gavage for 8 weeks by qPCR analysis; format: functional, organism-based
[11] = Toxicity against normal diet-fed ICR mouse assessed as effect on plasma HDL-C content at 10 mg/kg, ig administered daily via gavage for 8 weeks by spectrophotometric analysis; format: organism-based; settings: in vivo, po, 1344 h
[12] = Toxicity in normal diet fed ICR mouse assessed as hepatic total cholesterol content at 10 mg/kg, ig administered daily via gavage for 8 weeks by colorimetric assay; format: organism-based; settings: in vivo, po, 1344 h
Mus musculus [13] = experiment: Upregulation of ABCG1 protein expression in liver of high fat diet fed hyperlipidemic ICR mouse model at 10 mg/kg, ig administered daily via gavage for 8 weeks by western blotting analysis; format: functional, organism-based
Mus musculus [14] = experiment: Upregulation of ABCG8 protein expression in liver of high fat diet fed hyperlipidemic ICR mouse model at 10 mg/kg, ig administered daily via gavage for 8 weeks by western blotting analysis; format: functional, organism-based
[15] = Toxicity in normal diet fed ICR mouse assessed as ratio of spleen weight to body weight at 10 mg/kg, ig administered daily via gavage for 8 weeks (reference value: 0.42 +/-0.08); format: organism-based; settings: in vivo, po, 1344 h
Mus musculus [16] = experiment: Protection against hyperlipidemia in high fat diet-fed hyperlipidemic ICR mouse model assessed as reduction in serum LDL-C content at 20 mg/kg, ig administered daily via gavage for 8 weeks by spectrophotometric analysis; format: functional, organism-based
Mus musculus [17] = experiment: Upregulation of ABCA1 protein expression in liver of high fat diet fed hyperlipidemic ICR mouse model at 10 mg/kg, ig administered daily via gavage for 8 weeks by western blotting analysis; format: functional, organism-based
[18] = Toxicity in normal diet fed ICR mouse assessed as body weight loss at 10 mg/kg, ig administered daily via gavage for 8 weeks; format: organism-based; settings: in vivo, po, 1344 h
[19] = Toxicity in normal diet fed ICR mouse assessed as ratio of liver weight to body weight at 10 mg/kg, ig administered daily via gavage for 8 weeks (reference value: 3.74 +/-0.53); format: organism-based; settings: in vivo, po, 1344 h
[20] = Toxicity against normal diet-fed ICR mouse assessed as effect on plasma triglyceride content at 10 mg/kg, ig administered daily via gavage for 8 weeks by spectrophotometric analysis; format: organism-based; settings: in vivo, po, 1344 h
Mus musculus [21] = experiment: Upregulation of PPAR-gamma mRNA expression in liver of high fat diet fed hyperlipidemic ICR mouse model at 10 to 20 mg/kg, ig administered daily via gavage for 8 weeks by qPCR analysis; format: functional, organism-based; settings: dose 10-20 mg/kg
Mus musculus [22] = experiment: Effect on food intake in high fat diet-fed hyperlipidemic ICR mouse model at 10 mg/kg, ig administered daily via gavage for 8 weeks; format: functional, organism-based
[23] = Toxicity in normal diet fed ICR mouse assessed as ratio of kidney weight to body weight at 10 mg/kg, ig administered daily via gavage for 8 weeks (reference value: 1.33 +/-0.12); format: organism-based; settings: in vivo, po, 1344 h
[24] = Toxicity in normal diet fed ICR mouse assessed as hepatic triglyceride content at 10 mg/kg, ig administered daily via gavage for 8 weeks by colorimetric assay; format: organism-based; settings: in vivo, po, 1344 h
Mus musculus [25] = experiment: Protection against hyperlipidemia in high fat diet-fed hyperlipidemic ICR mouse model assessed as reduction in serum total cholesterol content at 10 mg/kg, ig administered daily via gavage for 8 weeks by spectrophotometric analysis; format: functional; settings: po, 1344 h
Mus musculus [26] = experiment: Upregulation of ABCG1 mRNA expression in liver of high fat diet fed hyperlipidemic ICR mouse model at 10 mg/kg, ig administered daily via gavage for 8 weeks by qPCR analysis relative to control; format: functional
Mus musculus [27] = experiment: Protection against hyperlipidemia in high fat diet-fed hyperlipidemic ICR mouse model assessed as reduction in hepatic triglyceride content at 10 mg/kg, ig administered daily via gavage for 8 weeks by colorimetric assay; format: functional; settings: po, 1344 h
[28] = Toxicity in high fat diet fed hyperlipidemic ICR mouse model assessed as ratio of spleen weight to body weight at 10 mg/kg, ig administered daily via gavage for 8 weeks (reference value: 0.43 +/-0.11); format: organism-based; settings: in vivo, po, 1344 h

SMILES: CN1c2ccccc2C(=O)N2CCc3c([nH]c4ccccc34)C21 (stereo not drawn)
- Ratio [1]: 0.48
- Activity (Mus musculus [2]): inactive
- fold change (FC) [3]: 0.49
- Ratio [4]: 1.48
- inhibition (Mus musculus [5]): Active
- Ratio [6]: 0.78
- Activity (Mus musculus [7]): Active
- Activity (Mus musculus [8]): Active
- inhibition in vivo at 10 mg/kg (Mus musculus [9]): 42.3%
- Activity (Mus musculus [10]): inactive
- Activity [11]: Non-Toxic
- Activity [12]: Non-Toxic
- Activity (Mus musculus [13]): Active
- Activity (Mus musculus [14]): inactive
- Ratio [15]: 0.41
- Activity (Mus musculus [16]): Active
- Activity (Mus musculus [17]): inactive
- Activity [18]: Toxic
- Ratio [19]: 3.64
- Activity [20]: Non-Toxic
- Activity (Mus musculus [21]): Active
- Activity (Mus musculus [22]): inactive
- Ratio [23]: 1.33
- Activity [24]: Non-Toxic
- inhibition in vivo at 10 mg/kg (Mus musculus [25]): 50%
- fold change (FC) (Mus musculus [26]): 3.6
- inhibition in vivo at 10 mg/kg (Mus musculus [27]): 33.2%
- Ratio [28]: 0.37
